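Cultured in 96-well plates, cells were exposed to test compound for 48 hours across five concentrations. At the GI50, growth is halved. TGI denotes the concentration required for complete inhibition of growth.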
Experiments:
Experiment in all cases: growth of human tumour cells (NCI), 48 h
CAKI-1 renal = system: CAKI-1 renal
LOX IMVI melanoma = system: LOX IMVI melanoma
A549 NSCLC = system: A549 NSCLC
OVCAR-3 ovarian = system: OVCAR-3 ovarian
SK-MEL-2 melanoma = system: SK-MEL-2 melanoma
A498 renal = system: A498 renal
SK-MEL-28 melanoma = system: SK-MEL-28 melanoma
KM12 colon = system: KM12 colon
SF-268 CNS = system: SF-268 CNS
RPMI-8226 leukemia = system: RPMI-8226 leukemia
NCI/ADR-RES ovarian = system: NCI/ADR-RES ovarian
MDA-MB-231 breast = system: MDA-MB-231 breast
OVCAR-4 ovarian = system: OVCAR-4 ovarian
NCI-H460 lung = system: NCI-H460 lung
SNB-75 CNS = system: SNB-75 CNS
SNB-19 CNS = system: SNB-19 CNS
NCI-H23 lung = system: NCI-H23 lung
SR leukemia = system: SR leukemia
HCC-2998 colon = system: HCC-2998 colon
SF-539 CNS = system: SF-539 CNS
HCT-116 colon = system: HCT-116 colon
PC-3 prostate = system: PC-3 prostate
EKVX NSCLC = system: EKVX NSCLC
HCT-15 colon = system: HCT-15 colon
SK-OV-3 ovarian = system: SK-OV-3 ovarian
UACC-257 melanoma = system: UACC-257 melanoma
MOLT-4 leukemia = system: MOLT-4 leukemia
SN12C renal = system: SN12C renal
ACHN renal = system: ACHN renal
SF-295 CNS = system: SF-295 CNS
BT-549 breast = system: BT-549 breast
OVCAR-5 ovarian = system: OVCAR-5 ovarian
NCI-H522 lung = system: NCI-H522 lung
TK-10 renal = system: TK-10 renal
UO-31 renal = system: UO-31 renal
UACC-62 melanoma = system: UACC-62 melanoma
OVCAR-8 ovarian = system: OVCAR-8 ovarian
SW-620 colon = system: SW-620 colon
MDA-MB-435 = system: MDA-MB-435
HS 578T breast = system: HS 578T breast
HT29 colon = system: HT29 colon
IGROV1 ovarian = system: IGROV1 ovarian
HOP-62 NSCLC = system: HOP-62 NSCLC
CCRF-CEM leukemia = system: CCRF-CEM leukemia
COLO 205 colon = system: COLO 205 colon
SK-MEL-5 melanoma = system: SK-MEL-5 melanoma
T-47D breast = system: T-47D breast
U251 CNS = system: U251 CNS
MALME-3M melanoma = system: MALME-3M melanoma
DU-145 prostate = system: DU-145 prostate
M14 melanoma = system: M14 melanoma
RXF 393 renal = system: RXF 393 renal
NCI-H226 lung = system: NCI-H226 lung
MCF7 breast = system: MCF7 breast
786-0 renal = system: 786-0 renal

COc1cc(C(=O)Nc2cc(O)c(CC=C(C)C)c(O)c2)cc2c1O[C@]1(C)CC[C@@H](O)C(C)(C)[C@H]1C2
GI50 (CAKI-1 renal): 0.491 µM | TGI (CAKI-1 renal): 63.1 µM | GI50 (LOX IMVI melanoma): 0.281 µM | TGI (LOX IMVI melanoma): 10.3 µM | GI50 (A549 NSCLC): 1.05 µM | TGI (A549 NSCLC): 24.6 µM | GI50 (OVCAR-3 ovarian): 3.83 µM | TGI (OVCAR-3 ovarian): 62 µM | GI50 (SK-MEL-2 melanoma): 0.143 µM | TGI (SK-MEL-2 melanoma): 8.21 µM | GI50 (A498 renal): 0.147 µM | TGI (A498 renal): 15.7 µM | GI50 (SK-MEL-28 melanoma): 2.03 µM | TGI (SK-MEL-28 melanoma): 22.8 µM | GI50 (KM12 colon): 1.76 µM | TGI (KM12 colon): 12.9 µM | GI50 (SF-268 CNS): 1.79 µM | TGI (SF-268 CNS): 39.3 µM | GI50 (RPMI-8226 leukemia): 0.0959 µM | TGI (RPMI-8226 leukemia): 0.816 µM | GI50 (NCI/ADR-RES ovarian): 29.8 µM | TGI (NCI/ADR-RES ovarian): > 100 µM | GI50 (MDA-MB-231 breast): 1.16 µM | TGI (MDA-MB-231 breast): 4.53 µM | GI50 (OVCAR-4 ovarian): 10.1 µM | TGI (OVCAR-4 ovarian): > 100 µM | GI50 (NCI-H460 lung): 0.547 µM | TGI (NCI-H460 lung): 19.1 µM | GI50 (SNB-75 CNS): 0.33 µM | TGI (SNB-75 CNS): 17 µM | GI50 (SNB-19 CNS): 4.64 µM | TGI (SNB-19 CNS): 61.6 µM | GI50 (NCI-H23 lung): 5.42 µM | TGI (NCI-H23 lung): 35.9 µM | GI50 (SR leukemia): 0.0624 µM | TGI (SR leukemia): > 100 µM | GI50 (HCC-2998 colon): 3.13 µM | TGI (HCC-2998 colon): 13.8 µM | GI50 (SF-539 CNS): 0.0391 µM | TGI (SF-539 CNS): 1.51 µM | GI50 (HCT-116 colon): 0.219 µM | TGI (HCT-116 colon): 10.8 µM | GI50 (PC-3 prostate): 0.142 µM | TGI (PC-3 prostate): 37.5 µM | GI50 (EKVX NSCLC): 2.71 µM | TGI (EKVX NSCLC): 32 µM | GI50 (HCT-15 colon): 1.32 µM | TGI (HCT-15 colon): 14.4 µM | GI50 (SK-OV-3 ovarian): 0.729 µM | TGI (SK-OV-3 ovarian): 17.3 µM | GI50 (UACC-257 melanoma): 0.0989 µM | TGI (UACC-257 melanoma): 13.1 µM | GI50 (MOLT-4 leukemia): 0.0641 µM | TGI (MOLT-4 leukemia): 1.38 µM | GI50 (SN12C renal): 8.12 µM | TGI (SN12C renal): 60.2 µM | GI50 (ACHN renal): 1.78 µM | TGI (ACHN renal): 24.3 µM | GI50 (SF-295 CNS): 0.0397 µM | TGI (SF-295 CNS): 0.325 µM | GI50 (BT-549 breast): 0.153 µM | TGI (BT-549 breast): 12.8 µM | GI50 (OVCAR-5 ovarian): 3.44 µM | TGI (OVCAR-5 ovarian): 37 µM | GI50 (NCI-H522 lung): 1.92 µM | TGI (NCI-H522 lung): 14.6 µM | GI50 (TK-10 renal): 2.91 µM | TGI (TK-10 renal): 42.4 µM | GI50 (UO-31 renal): 0.506 µM | TGI (UO-31 renal): 4.13 µM | GI50 (UACC-62 melanoma): 0.187 µM | TGI (UACC-62 melanoma): 1.57 µM | GI50 (OVCAR-8 ovarian): 0.623 µM | TGI (OVCAR-8 ovarian): 44.2 µM | GI50 (SW-620 colon): 1.15 µM | TGI (SW-620 colon): 11.9 µM | GI50 (MDA-MB-435): 0.703 µM | TGI (MDA-MB-435): 41.4 µM | GI50 (HS 578T breast): 0.0471 µM | TGI (HS 578T breast): 14 µM | GI50 (HT29 colon): 1.9 µM | TGI (HT29 colon): 12.3 µM | GI50 (IGROV1 ovarian): 7.06 µM | TGI (IGROV1 ovarian): 46.3 µM | GI50 (HOP-62 NSCLC): 0.46 µM | TGI (HOP-62 NSCLC): 8.81 µM | GI50 (CCRF-CEM leukemia): 0.0962 µM | TGI (CCRF-CEM leukemia): > 100 µM | GI50 (COLO 205 colon): 1.37 µM | TGI (COLO 205 colon): 7.98 µM | GI50 (SK-MEL-5 melanoma): 1.13 µM | TGI (SK-MEL-5 melanoma): 3.51 µM | GI50 (T-47D breast): 1.12 µM | TGI (T-47D breast): 14.3 µM | GI50 (U251 CNS): 0.0399 µM | TGI (U251 CNS): 17.4 µM | GI50 (MALME-3M melanoma): 2.85 µM | TGI (MALME-3M melanoma): 20 µM | GI50 (DU-145 prostate): 1.87 µM | TGI (DU-145 prostate): 21.7 µM | GI50 (M14 melanoma): 0.333 µM | TGI (M14 melanoma): 2.35 µM | GI50 (RXF 393 renal): 0.0345 µM | TGI (RXF 393 renal): 2.89 µM | GI50 (NCI-H226 lung): 3.04 µM | TGI (NCI-H226 lung): 61.3 µM | GI50 (MCF7 breast): 0.256 µM | TGI (MCF7 breast): 15.4 µM | GI50 (786-0 renal): 0.0342 µM | TGI (786-0 renal): 6.85 µM
